Values joined by “and” are separate entries in the source; they are usually repeats but may differ in a detail not shown here. Identical values can stand only once. Like-named read-outs stand apart in the source and are kept apart here.
What was measured:
[1] = system: JAK/STAT pathway SEAP expression in HEK293T cells; assay: CDH-GEMS receptor signaling SEAP assay; format: cell-based; conditions: Suppl Fig 9d
From the text: To test modularity and performance robustness of the CDHs in different molecular contexts, we inserted these modules in the generalizable extracellular molecule sensor (GEMS) receptor signaling pathway platform[24] and built CDH-GEMS. In these constructs the CDHs are localized extracellularly and function as ectodomain switches, fused to the backbone of the erythropoietin receptor, and an intracellular interleukin 6 receptor domain which activates the JAK/STAT pathway (Fig. 3d). The CDH-GEMS trigger the activation of the JAK/STAT pathway by the dimerization of their subunits. Thus, the drugs are expected to split the CDHs inactivating the signaling pathway as assessed by the expression of the reporter protein SEAP. All three CDH-GEMS were responsive to their respective drugs dynamic response range varied from approximately 6-fold (CDH-2) to 8-fold (CDH-1,3) (Fig. 3e). […] The CDH-GEMS were also reversible upon intermittent drug treatment (Supplementary Fig. 7h, i). Despite that comparisons between CDH-TFs and CDH-GEMS are not straightforward due to differences in the reporter signaling pathways, we observe a general trend for the CDHs to present lower IC50s when used as extracellular modules, which is consistent with overcoming drug permeability issues in cells.
HEK293T cells were maintained in DMEM medium with 10% FBS (Gibco) and Pen/Strep (Thermo Fisher). Cells were maintained and split every two days at around 80% confluence. HEK293T cells were seeded 24 h before transfection, and transfected with the lipofectamine 3000 kit (Thermo Fisher). Plasmids were cotransfected according to the Table S7. For the drug OFF-switch experiments, drugs were added 12 h post transfection and incubated with cells for 24 h before the SEAP detection assay.
Secreted alkaline phosphatase (SEAP) activity (U/L) in cell culture supernatants was quantified by kinetic measurements at 405 nm (1 min/measurement for 30 cycles) of absorbance increase due to phosphatase-mediated hydrolysis of para-nitrophenyl phosphate (pNPP).
Apparent IC50s of SPR drug competition assay were calculated using three-parameter nonlinear regression in GraphPad Prism (Version 8.3.0). Representative data of cellular assays are presented as individual values and mean values (bars). n = 3 refers to biological replicates. All IC50/EC50 values of cellular assays (CDH-TF, CDH-GEMS, AIR-TF and AIR-GEMS) reported were calculated using four-parameter nonlinear regression ± s.d.
Supplementary Figure 9: Comparison of ON-state reporter expression of weak affinity variants of LD3 in CDH-1/2-GEMS platform. a) ON-state expression of CDH-1-GEMS with LD3 and LD3_v3. b) Drug dose-dependent responses in engineered cells determined for the CDH-1-GEMS with LD3 and LD3_v3. c) ON-state expression of CDH-2-GEMS with LD3 and LD3_v3. d) Drug dose-dependent responses in engineered cells determined for the CDH-2-GEMS with LD3 and LD3_v3. In the data shown HEK293T cells were […]
quantification was done 24 hours after drug treatment. a, c) The bar charts show the mean ± s.d. of n = 3 biologically independent samples overlaid with a scatter dot plot of the original data points. b, d) Each […]
parameter nonlinear regression.
(1 picture or pasted object on this page, not shown here)

[2] = system: SEAP expression in HEK293T cells; assay: MISO designer cells (CDH-1 + CDH-3 dual switches); format: cell-based; set-up: SEAP / Bottom (best-fit value) / Top (best-fit value) / Span (best-fit value): unit not given here; conditions: for logIC50 (best-fit value): drug in nM; for SEAP, Drug-3 turn OFF CDH-3-TF (with 1 µM Drug-1): Fig S13f; for SEAP, Drug-3 turn OFF CDH-3-GEMS (+1 µM Drug-3): Fig S13g, representative data; for IC50: Homo sapiens, HEK-293T, read-out: IC50 (best-fit value)
From the text: Fig. 5 Orthogonal chemical switches enable implementation of multi-input multi-output control modes in mammalian cells. a Scheme of multi-inputs multi-outputs (MIMO) designer cells where two drugs control two different outputs. b, c Cells were co-transfected with AIR-1/2-GEMS and CDH-3-TF regulate SEAP and Luciferase expression, respectively. […] AIR-1/2-GEMS coupled with SEAP expression circuits were co-transfected with CDH-1/2-TF circuits which control the Luciferase production. Respective drug concentrations ranged from 0.001 nM to 1 µM. […]
We then engineered MISO cells (Fig. 5d) with CDH-1-TF and CDH-3-TF dual switches (Fig. 5e) that encode OFF behaviors controlled by Drug-1 and Drug-3. […] This output behavior is distinct from the typical SISO systems which only show two persistent states (high, low) (Fig. 2c, f). […] This type of output in biological systems could be utilized to produce graded levels of responses that are robust to minor oscillations in drug concentrations, and could be used to dissect fundamental biological processes but also to provide persistent response levels in translational applications.
1-TF and CDH-3-TF circuits. Drug-1 concentrations ranged from 0.001 nM to 1 µM (left) and 1 µM Drug-1 with serial diluted Drug-3 from 0.001 nM to 1 µM (right). g) Quantification of SEAP activity controlled […]
by CDH-1-GEMS and CDH-3-GEMS circuits. […]
Luciferase production (l). b-k) Each data point represents the mean of n = 3 biological replicates, and the dose-dependent curve were fitted using four-parameter nonlinear regression.

[3] = Fig5e SEAP, CDH-3-TF, four-parameter fit
[4] = Fig5f SEAP, CDH-3-GEMS, three-parameter fit

In the case of `CC1(C)CCC(CN2CCN(c3ccc(C(=O)NS(=O)(=O)c4ccc(NCC5CCOCC5)c([N+](=O)[O-])c4)c(Oc4cnc5[nH]ccc5c4)c3)CC2)=C(c2ccc(Cl)cc2)C1` [Drug-2, Venetoclax], the SEAP % ([1]; Bcl2:LD3, 0.001 nM) is reported as 300.653% and 318.178% and 392.457%, the SEAP % ([1]; Bcl2:LD3, 0.01 nM) is reported as 308.454% and 345.509% and 340.557% and the SEAP % ([1]; Bcl2:LD3, 0.1 nM) is reported as 274.777% and 330.791% and 315.073%. The SEAP % ([1]; Bcl2:LD3, 1 nM) was 266.802% and 312.808% and 313.179%, the SEAP % ([1]; Bcl2:LD3, 10 nM) was 230.526% and 261.334% and 264.64% and the SEAP % ([1]; Bcl2:LD3, 50 nM) was 182.557% and 182.048% and 191.603%. The SEAP % ([1]; Bcl2:LD3, 100 nM) was 137.415% and 148.555% and 171.413%, the SEAP % ([1]; Bcl2:LD3, 500 nM) was 103.855% and 121.158% and 118.471% and the SEAP % ([1]; Bcl2:LD3, 1000 nM) was 85.4687% and 78.7046% and 88.4921%. For the same compound, the SEAP % ([1]; Bcl2:LD3_v3, 0.001 nM) was 435.755% and 579.505% and 634.353%, the SEAP % ([1]; Bcl2:LD3_v3, 0.01 nM) was 426.219% and 513.058% and 543.118% and the SEAP % ([1]; Bcl2:LD3_v3, 0.1 nM) was 389.885% and 497.895% and 507.442%. For the same compound, the SEAP % ([1]; Bcl2:LD3_v3, 1 nM) was 349.489% and 416.083% and 425.558%, the SEAP % ([1]; Bcl2:LD3_v3, 10 nM) was 179.661% and 237.904% and 242.508% and the SEAP % ([1]; Bcl2:LD3_v3, 50 nM) was 112.482% and 132.539% and 150.605%. The SEAP % ([1]; Bcl2:LD3_v3, 100 nM) was 97.6884% and 119.034% and 118.118%, the SEAP % ([1]; Bcl2:LD3_v3, 500 nM) was 69.1684% and 95.9179% and 92.604% and the SEAP % ([1]; Bcl2:LD3_v3, 1000 nM) was 52.9029% and 66.0602% and 70.7894%.
In the case of `COc1cc2c(cc1OC(C)C)[C@H](c1ccc(Cl)cc1)N(c1ccc(N(C)C[C@H]3CC[C@H](N4CCN(C)C(=O)C4)CC3)cc1)C(=O)C2` [Drug-3, NVP-CGM097], the “Bottom (best-fit value)” value [2, 3] is reported as 17.47, the “HillSlope (best-fit value)” value [2, 3] is reported as -0.6148 and the “Span (best-fit value)” value [2, 3] is reported as 17.06. The “Top (best-fit value)” value [2, 3] was 34.53, the “logIC50 (best-fit value)” value [2, 3] was 1.333 and the SEAP ([2]; Fig5e, turn OFF CDH-3-TF, 0.001 nM) was 33.8408 and 34.0469 and 34.3351. For the same compound, the SEAP ([2]; Fig5e, turn OFF CDH-3-TF, 0.01 nM) was 29.7183 and 31.0605 and 34.2655, the SEAP ([2]; Fig5e, turn OFF CDH-3-TF, 0.1 nM) was 37.5532 and 35.9265 and 39.0056 and the SEAP ([2]; Fig5e, turn OFF CDH-3-TF, 1 nM) was 35.3902 and 29.1113 and 33.3839. The SEAP ([2]; Fig5e, turn OFF CDH-3-TF, 10 nM) was 29.3646 and 23.7323 and 25.8725, the SEAP ([2]; Fig5e, turn OFF CDH-3-TF, 100 nM) was 25.079 and 20.2253 and 26.0755 and the SEAP ([2]; Fig5e, turn OFF CDH-3-TF, 1000 nM) was 15.9296 and 18.8913 and 19.9566. For the same compound, the “Bottom (best-fit value)” value [2, 4] was 53.47, the “Span (best-fit value)” value [2, 4] was 48.26 and the “Top (best-fit value)” value [2, 4] was 101.7. The “logIC50 (best-fit value)” value [2, 4] was 0.4646, the SEAP ([2]; Fig5f, turn OFF CDH-3-GEMS, 0.001 nM) was 113.362 and 89.612 and 99.5052 and the SEAP ([2]; Fig5f, turn OFF CDH-3-GEMS, 0.01 nM) was 121.028 and 91.7365 and 92.479. For the same compound, the SEAP ([2]; Fig5f, turn OFF CDH-3-GEMS, 0.1 nM) was 104.447 and 97.6051 and 99.9447, the SEAP ([2]; Fig5f, turn OFF CDH-3-GEMS, 1 nM) was 100.353 and 82.6179 and 86.7829 and the SEAP ([2]; Fig5f, turn OFF CDH-3-GEMS, 10 nM) was 58.8118 and 64.1853 and 65.9179. The SEAP ([2]; Fig5f, turn OFF CDH-3-GEMS, 100 nM) was 45.2413 and 57.2529 and 77.3068, the SEAP ([2]; Fig5f, turn OFF CDH-3-GEMS, 1000 nM) was 32.455 and 54.8353 and 61.4484 and the “SEAP, Drug-3 turn OFF CDH-3-TF (with 1 µM Drug-1)” value (“SEAP, Drug-3 turn OFF CDH-3-TF” for short) ([2]; Drug-3 0.001 nM with 1 µM Drug-1) was 20.0495 U/L and 20.062 U/L and 15.0342 U/L. The “SEAP, Drug-3 turn OFF CDH-3-TF” value ([2]; Drug-3 0.01 nM with 1 µM Drug-1) was 17.0461 U/L and 19.1502 U/L and 14.3967 U/L, the “SEAP, Drug-3 turn OFF CDH-3-TF” value ([2]; Drug-3 0.1 nM with 1 µM Drug-1) was 19.7901 U/L and 16.3361 U/L and 16.2198 U/L and the “SEAP, Drug-3 turn OFF CDH-3-TF” value ([2]; Drug-3 1 nM with 1 µM Drug-1) was 20.2218 U/L and 16.2578 U/L and 17.1111 U/L. For the same compound, the “SEAP, Drug-3 turn OFF CDH-3-TF” value ([2]; Drug-3 10 nM with 1 µM Drug-1) was 16.1201 U/L and 11.9157 U/L and 15.1062 U/L, the “SEAP, Drug-3 turn OFF CDH-3-TF” value ([2]; Drug-3 100 nM with 1 µM Drug-1) was 12.136 U/L and 6.982 U/L and 12.7567 U/L and the “SEAP, Drug-3 turn OFF CDH-3-TF” value ([2]; Drug-3 1000 nM with 1 µM Drug-1) was 12.5352 U/L and 7.0164 U/L and 6.482 U/L. For the same compound, the “SEAP, Drug-3 turn OFF CDH-3-GEMS (+1 µM Drug-3)” value (“SEAP, Drug-3 turn OFF CDH-3-GEMS” for short) ([2]; Drug-3 0.001 nM + 1 µM Drug-3) was 32.0934 U/L and 36.9962 U/L and 29.2725 U/L, the “SEAP, Drug-3 turn OFF CDH-3-GEMS” value ([2]; Drug-3 0.01 nM + 1 µM Drug-3) was 28.8246 U/L and 27.8451 U/L and 33.3513 U/L and the “SEAP, Drug-3 turn OFF CDH-3-GEMS” value ([2]; Drug-3 0.1 nM + 1 µM Drug-3) was 25.7325 U/L and 31.532 U/L and 32.3299 U/L. The “SEAP, Drug-3 turn OFF CDH-3-GEMS” value ([2]; Drug-3 1 nM + 1 µM Drug-3) was 22.1832 U/L and 28.8305 U/L and 36.3315 U/L, the “SEAP, Drug-3 turn OFF CDH-3-GEMS” value ([2]; Drug-3 10 nM + 1 µM Drug-3) was 20.2059 U/L and 25.0579 U/L and 21.1125 U/L and the “SEAP, Drug-3 turn OFF CDH-3-GEMS” value ([2]; Drug-3 100 nM + 1 µM Drug-3) was 19.7003 U/L and 17.1154 U/L and 24.8794 U/L. For the same compound, the “SEAP, Drug-3 turn OFF CDH-3-GEMS” value ([2]; Drug-3 1000 nM + 1 µM Drug-3) was 16.9947 U/L and 17.5781 U/L and 20.7969 U/L, the IC50 ([2]; Fig5e SEAP, turn OFF CDH-3-TF, four-parameter fit) was 21.5 nM and the IC50 ([2]; Fig5f SEAP, turn OFF CDH-3-GEMS, three-parameter fit) was 2.92 nM.
